Data reported in ChEMBL document CHEMBL4840349, “Macrocyclic Diterpenoid Constituents of Euphorbia deflexa, an Endemic Spurge from Greece” (J Nat Prod, 2021).
The source made the active and inactive calls. The calls are words filed in the database; no cut-off is given here.

Experiments:
SK-MEL-28 = assay: Cytotoxicity against human SK-MEL-28 cells assessed as cell growth inhibition incubated for 68 hrs by MTT assay; assay type: functional, cell-based; conditions: SK-MEL-28, 68 h
HeLa = assay: Cytotoxicity against human HeLa cells assessed as cell growth inhibition incubated for 68 hrs by MTT assay; assay type: functional, cell-based
Staphylococcus aureus = assay: Antibacterial activity against Staphylococcus aureus DSM 20231 incubated for 20 hrs by MTT based double dilution method; assay type: functional, organism-based
Streptococcus pyogenes = assay: Antibacterial activity against Streptococcus pyogenes DSM 20565-0316-001 incubated for 20 hrs by MTT based double dilution method; assay type: functional, organism-based
PC-3 = assay: Cytotoxicity against human PC-3 cells assessed as cell growth inhibition incubated for 68 hrs by MTT assay; assay type: functional, cell-based; conditions: PC-3, 68 h
HepG2 = assay: Cytotoxicity against human HepG2 cells assessed as cell growth inhibition incubated for 68 hrs by MTT assay; assay type: functional, cell-based; conditions: HepG2, 68 h

Compound	IC50 (SK-MEL-28)	IC50 (HeLa)	Activity (Staphylococcus aureus)	Activity (Streptococcus pyogenes)	IC50 (PC-3)	IC50 (HepG2)
CC(=O)OC[C@@]12Cc3c(ccc(C)c3O)[C@]1(C)[C@@H](OC(C)=O)[C@@]1(O)C[C@@](C)(OC(C)=O)[C@H](OC(=O)c3ccccc3)[C@@H]1[C@H]2OC(C)=O	> 10 µM	> 10 µM	–	–	–	–
C/C=C(/C)C(=O)OC[C@@]1(C)[C@H]2[C@@H]3C=C(C)[C@@H](O)[C@]4(O)[C@@H](OC(=O)/C(C)=C\C)C(C)=C[C@@]4(C3=O)[C@H](C)C[C@]21OC(C)=O	> 10 µM	9.8 µM	inactive	inactive	–	–
CC(=O)OC[C@@]12Cc3c(ccc(C)c3O)[C@]1(C)[C@@H](OC(C)=O)[C@]1(O)[C@H]([C@@H](OC(=O)c3ccccc3)[C@@H](C)[C@H]1OC(C)=O)[C@H]2OC(C)=O	> 10 µM	> 5.8 µM	–	–	–	–
C/C=C(/C)C(=O)O[C@H]1C(C)=C[C@]23C(=O)[C@@H](C=C(C)[C@@H](O)[C@]12O)[C@H]1[C@@H](C[C@H]3C)C1(C)C	> 10 µM	> 10 µM	–	–	> 10 µM	> 10 µM
CC(=O)OCC(=O)O[C@@H]1[C@H]2[C@@H](OC(=O)c3ccccc3)[C@@H](C)C[C@]2(O)[C@H](O)[C@]2(O)[C@H](OC(C)=O)[C@@]1(OC(C)=O)C[C@H]1C(=O)C(C)(C)C[C@@H]12	> 10 µM	> 10 µM	–	–	> 10 µM	> 10 µM
C/C=C(/C)C(=O)O[C@@H]1C2[C@@H](OC(=O)c3ccccc3)[C@@H](C)C[C@]2(O)C(=O)[C@@](C)(O)[C@H]2CC(C)(C)C(=O)[C@]2(O)[C@H]2O[C@@]12COC(C)=O (some centres not stated)	> 10 µM	> 10 µM	inactive	inactive	> 10 µM	> 10 µM
C=C1[C@H](O)[C@H]2[C@@H](OC(=O)c3ccccc3)[C@](C)(OC(C)=O)[C@@H](OC(=O)c3ccccc3)[C@]2(O)[C@@H](O)[C@@H](C)/C=C/C(C)(C)[C@H](O)[C@H](OC(C)=O)[C@H]1OC(C)=O	> 10 µM	9.9 µM	inactive	inactive	> 10 µM	> 10 µM
C=C1C(=O)O[C@@H]2C3O[C@]3(C)CC/C=C(\C)CC[C@@H]12 (some centres not stated)	4.9 µM	2.1 µM	–	–	> 10 µM	5.6 µM
